Values quoted from earlier work in patent publication US10206404B2, “Disinfectant” (Saban Ventures Pty Limited, priority 2012, dated 2019).

Settings: unbuffered peroxyacetic acid, regardless of how it is produced

For `CC(=O)OO` [peroxyacetic acid], the pH is listed as “around 2.8”.
